Experimental data as given in patent US12685738B2, “Inotodiol as agonist of liver x receptors, and use thereof” (CARBOEXPERT INC., priority 2020, dated 2026).
Values joined by “and” are separate entries in the source; they are usually repeats but may differ in a detail not shown here. Equal entries are not always repeated. Where two headings read alike, the source gives them in different places.

Legend:
[1] = Inotodiol concentrations in blood and brain tissue (LC/MS); type: in vivo, Balb/c mice; conditions: 4.5 mg/kg orally for 10 days, sampled day 11; for concentration at 11 day: 4.5 mg/kg
Protocol: When inotodiol was administered to mice, the concentrations of inotodiol detected in blood and brain tissue of the mice were analyzed.
Specifically, 7-week-old Balb/c mice were supplied and acclimatized for 1 week, and then 4 mice per group were assigned to conduct experiments. Mice were grouped into: four controls not administered with inotodiol; and four groups administered with inotodiol. In the groups administered with inotodiol, 4.5 mg/kg of inotodiol was orally administered for 10 days. On day 11, the controls and inotodiol-administered mice were sacrificed, and blood and brain tissue samples were prepared.
First, to analyze the concentration of inotodiol in blood, 20 μL of serum was transferred to a 1.5 mL Eppendorf tube, and then inotodiol was extracted twice in ethanol. In each extraction step, 200 μL of ethanol was mixed with serum and the mixture was sonicated for 10 minutes, followed by centrifugation at 14000×g for 15 minutes.
To analyze the concentration of inotodiol in brain tissue, the whole brain was weighed and mixed with 10-fold (v/w) 100% ethanol, and then the mixture was sonicated and centrifuged.
After centrifugation, each residue was reconstituted with 0.5 mL of 60% methanol for solid phase extraction by using a C18 cartridge (Sep-Pak C18 3 cc Vac Cartridge, 200 mg adsorbent, Waters). Samples were loaded into cartridges and activated using methanol (6 mL), followed by conditioning with 60% methanol (6 mL). The cartridges were then washed with 6 mL of 60% methanol. Then, inotodiol was collected by eluting the cartridges with 100% methanol (3 mL) in glass tubes. After evaporation of each sample, the residue was dissolved in methanol and subjected to LC/MS analysis.

[2] = system: LXR-related markers (Abca1, Srebf1_1C, AQP1, ApoE1); assay: In vivo qPCR analysis of effect of inotodiol on LXR-related markers; design: species or system mice (BALB/cAnNTacSam)
Protocol: The effect of inotodiol on Abca1, Srebf1_1C, AQP1, and ApoE1, which are LXR-related markers, was analyzed.
First, an inotodiol emulsion for administration at a dose of 4 mg/kg was prepared. Specifically, an emulsion was prepared by mixing inotodiol with 10% of olive oil (Monini, Classico extra virgin olive oil), 0.5% of tween 80, and sterile water. Subsequently, each 0.15 mL of the prepared emulsion was administered to BALB/cAnNTacSam (Sam Taco Bio Korea Co., Ltd.) for 5 days. After 5 days of administration, mice were euthanized, and then spleen, lung, liver and peritoneal cell samples were isolated.
Next, to perform qPCR on the isolated samples, total RNA was extracted using a Bead™ Total RNA Prep Kit (BioFACT™) sample. Thereafter, primers for Abca1, Srebf1_1C, AQP1, and ApoE1 were used, the reaction reagent for qPCR was 2× Real-Time PCR Master Mix (BioFACT™), and the equipment used for qPCR was AriaMx Real-time PCR. The qPCR conditions were as follows: at 95° C. for 15 minutes, and 50 cycles at 95° C. for 20 seconds, 55° C. for 30 seconds, and 72° C. for 0.5-1 min/kb, and for the melting curve, 1 cycle was performed at 95° C. for 30 seconds, 65° C. for 30 seconds, and 95° C. for 30 seconds, and relative mRNA expression was measured.

[3] = Two-week mouse toxicity test: health signs and total fat content of liver; conditions: for changes in total fat content of the liver: male and female mice, 2 weeks
Protocol: If inotodiol is a LXR-α agonist, inotodiol overexpresses Srebf1 in the liver, thereby inducing fatty liver. Selectivity for LXRs and safety of inotodiol were evaluated through a two-week mouse toxicity test.
Specifically, the inotodiol emulsion was orally administered to male and female ICR mice in an amount of 0.0 mg/kg (group 1), 5.0 mg/kg (group 2), and 20 mg/kg (group 3) once a day for 2 weeks. […] As a control, 100% olive oil was administered.

TNF-α = TNF-α ELISA in arthritic animals; type: in vivo, mouse; conditions: arthritic animals administered with inotodiol; FIG. 8
Protocol: Next, the expression of TNF-α, which is a factor that activates inflammation, was confirmed. […] Then, the coating buffer was removed, followed by washing three times with 200 μL of washing buffer (0.05% Tween20/PBS). To prevent non-specific binding, a reaction with 200 μL of a blocking solution (1% BSA/PBS) was allowed to occur at room temperature for 1 hour. Washing was performed three times using a washing buffer. A standard material (Biolgend) and each sample were diluted using a blocking solution, and then 100 μL of each thereof was dispensed, and a reaction was allowed to occur therein at room temperature for 2-4 hours. Washing was performed three times using a washing buffer. A secondary antibody (biotin-labeled detection antibody, biolegend) was diluted to 0.25-2 μg/mL using a blocking solution, and then 100 μl thereof was dispensed and a reaction was allowed to occur therein at room temperature for 1 hour. Washing was performed three times using a washing buffer. Avidin-Horseradish peroxidase (Biolegend) was diluted 1/1000 times using a blocking solution, then 100 μL thereof was dispensed and a reaction was allowed to occur therein at room temperature for 30 minutes. Washing was performed 5 times using a washing buffer. […] An ELISA plate was examined at 450 nm using an EPOCH microplate reader (Biotek).

APOE = assay: Real-time PCR of APOE gene expression in brain tissue; type: in vivo, Balb/c mice; conditions: Ino (10 mpk) vs control (Naïve); groups prepared as in Example 3; FIG. 6B
Protocol: (§1) When inotodiol was administered to mice, the expression of ABCA1 and APOE in brain tissue, which are genes related to neurodegenerative brain diseases, was analyzed.
(§2) Specifically, as in Example 3, controls and inotodiol-administered mouse groups were prepared, and then, to extract total RNA, first, 50 mg of brain tissue samples were quantified, and then cells were crushed using a mortar. 1 mL of Trizol was dispensed into each crushed sample and mixed by vortexing. Then, 0.2 mL of chloroform was dispensed and a reaction was allowed to occur therein at room temperature for 3 minutes. The reaction product was centrifuged at 12,000 rpm and 4° C. for 15 minutes, and then only the transparent supernatant was transferred to a new tube. Thereafter, 0.5 mL of isopropyl alcohol was dispensed, and then a reaction was allowed to occur therein at room temperature for 10 minutes. The resultant was centrifuged 12,000 rpm and 4° C. for 10 minutes, and then the supernatant was completely removed, and impurities were removed using 1 mL of 75% ethanol. […] Each sample was dissolved using DEPC water, and then total RNA was quantified to 1000 ng/μL using Nanodrop, and cDNA synthesis was performed using primeScript RT Master Mix (Takara Korea). […]

rheumatoid arthritis = assay: Bovine type II collagen-induced arthritis, macroscopic arthritic score; type: in vivo, male DBA/1J mice; conditions: 4 mg/kg or 10 mg/kg orally once a day for 4 weeks; vs arthritic animals not administered; FIG. 7
ABCA1 = assay: Real-time PCR of ABCA1 gene expression in brain tissue; type: in vivo, Balb/c mice; conditions: Ino (10 mpk) vs control (Naïve); groups prepared as in Example 3; FIG. 6A
Protocol: as §1, §2

[4] = inotodiol emulsion 4 mg/kg for 5 days, various samples (FIGS. 1 to 5), vs untreated control
[5] = liver sample, 4 mg/kg for 5 days

Question: What does the source list for CC(C)=CC[C@@H](O)[C@@H](C)[C@H]1CC[C@@]2(C)C3=C(CC[C@]12C)[C@@]1(C)CC[C@H](O)C(C)(C)[C@@H]1CC3 [inotodiol, (3S,5R,10S,13R,14R,17R)-17-[(2S,3R)-3-hydroxy-6-methylhept-5-en-2-yl]-4,4,10,13,14-pentamethyl-2,3,5,6,7,11,12,15,16,17-decahydro-1H-cyclopenta[a]phenanthren-3-ol]?
Answer: Inotodiol concentration (ng/g) Brain, individual mice [1]: 177.1 ng/g and 133.3 ng/g and 135.0 ng/g; Inotodiol concentration (ng/g) Brain, Average ([1]; 4 mice): 151.7 ± 21.3 ng/g; Inotodiol concentration (ng/g) Blood, Average ([1]; 4 mice, serum): 12.1 ± 1.3 ng/g; Inotodiol concentration (ng/g) Blood, individual mice ([1]; serum): 10.5 ng/g and 14.2 ng/g and 11.8 ng/g; Kp at 11 day ([1]; Balb/c, mouse, brain / blood (serum), oral, read-out: inotodiol detected in the brain relative to blood): ~12; concentration at 11 day ([1]; Balb/c, mouse, brain, oral, 4 mice, read-out: Inotodiol concentration (ng/g) Brain, Average): 152 ± 21.3 ng/g; concentration at 11 day ([1]; Balb/c, mouse, brain, oral, read-out: Inotodiol concentration (ng/g) Brain, individual mice): 161 ng/g; concentration at 11 day ([1]; Balb/c, mouse, serum, oral, 4 mice, serum, read-out: Inotodiol concentration (ng/g) Blood, Average): 12.1 ± 1.3 ng/g; concentration at 11 day ([1]; Balb/c, mouse, serum, oral, serum, read-out: Inotodiol concentration (ng/g) Blood, individual mice): 12.2 ng/g; expression of AQP1 (relative mRNA expression) [2, 4]: increases; expression of Abca1 (relative mRNA expression) [2, 4]: increases; expression of ApoE1 (relative mRNA expression) [2, 4]: increases; expression of Srebf1 (relative mRNA expression) [2, 4]: increases; expression of AQP1, regulated by LXR-β [2, 5]: significant increase; expression of Srebf1, specifically regulated by LXR-α [2, 5]: no significant increase; LXR-α / LXR-β selectivity inferred from marker expression ([2]; liver sample, inferred from Srebf1 and AQP1 expression): does not bind well to LXR-α and acts as an agonist by more specifically binding to LXR-β; Total fat (%) in mouse liver, Average ([3]; Female, Group 2 (5.0 mg/kg oral once a day for 2 weeks)): 3.24%; Total fat (%) in mouse liver, individual animal analyses ([3]; Female, Group 2 (5.0 mg/kg oral once a day for 2 weeks), 5 mg/kg): 2.96% and 3.08% and 2.80% and 2.72% and 3.45% and 3.57% and 3.03% and 3.10% and 4.42% and 3.82% and 2.85% and 3.09%; Total fat (%) in mouse liver, Average ([3]; Female, Group 3 (20 mg/kg oral once a day for 2 weeks)): 3.56%; Total fat (%) in mouse liver, individual animal analyses ([3]; Female, Group 3 (20 mg/kg oral once a day for 2 weeks), 20 mg/kg): 4.01% and 4.03% and 3.49% (2×) and 2.69% and 2.94% and 3.09% and 3.19% and 3.16% and 3.23% and 4.77% and 4.62%; Total fat (%) in mouse liver, Average ([3]; Male, Group 2 (5.0 mg/kg oral once a day for 2 weeks)): 3.23%; Total fat (%) in mouse liver, individual animal analyses ([3]; Male, Group 2 (5.0 mg/kg oral once a day for 2 weeks), 5 mg/kg): 3.39% and 3.25% and 3.48% and 3.47% and 2.83% and 2.72% and 2.86% and 3.78% and 3.19% and 3.17% and 3.18% and 3.43%; Total fat (%) in mouse liver, Average ([3]; Male, Group 3 (20 mg/kg oral once a day for 2 weeks)): 3.27%; Total fat (%) in mouse liver, individual animal analyses ([3]; Male, Group 3 (20 mg/kg oral once a day for 2 weeks), 20 mg/kg): 3.38% and 3.52% and 3.44% and 3.47% and 3.07% and 3.10% and 3.23% and 3.30% and 3.36% and 3.41% and 2.99% and 2.93%; changes in total fat content of the liver ([3]; dose of 5 mg/kg): no significant changes; changes in total fat content of the liver ([3]; dose of 20 mg/kg): no significant changes; signs of abnormal health ([3]; oral, 5.0 and 20 mg/kg once a day for 2 weeks, male and female ICR mice): No signs of abnormal health; TNF-α expression (ELISA) (TNF-α): lower level; APOE gene expression in brain tissue (APOE): highly expressed; macroscopic arthritic score (maximum score=16) (rheumatoid arthritis): lower; ABCA1 gene expression in brain tissue (ABCA1): highly expressed
